How the values were obtained:
[1] = target: T1, recombinant human renin (Homo sapiens, UniProt P00797); assay: Primary renin inhibition assay: IC50 in buffer, 384 well MTP (Ang I EIA readout); format: biochemical
T1 sequence (P00797 67-406): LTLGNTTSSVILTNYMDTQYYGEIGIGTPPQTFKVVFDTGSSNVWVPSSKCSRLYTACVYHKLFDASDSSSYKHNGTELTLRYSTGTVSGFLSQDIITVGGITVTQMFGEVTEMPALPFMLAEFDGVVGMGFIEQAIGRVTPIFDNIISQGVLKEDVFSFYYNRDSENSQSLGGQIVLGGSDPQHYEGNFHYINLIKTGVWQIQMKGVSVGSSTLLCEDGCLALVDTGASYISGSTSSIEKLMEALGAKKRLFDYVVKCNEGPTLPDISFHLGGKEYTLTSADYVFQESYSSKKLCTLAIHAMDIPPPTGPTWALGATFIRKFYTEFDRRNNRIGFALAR
Description: 1. Enzyme Immuno Assay (EIA) to Estimate Ang I Accumulation and Renin Inhibition
1.1 Preparation of Ang I-BSA Conjugate
1.3 mg (1 μmol) of Ang I [1-10 (Bachem, H-1680)] and 17 mg (0.26 μmol) of BSA (Fluka, 05475) were dissolved in 4 mL of 0.1M phosphate buffer, pH 7.4, after which 2 mL of a 1:100 dilution of glutaraldehyde in H2O (Sigma G-5882) was added dropwise. The mixture was incubated overnight at 4° C., then dialyzed against 2 liters of 0.9% NaCl, twice for 4 h at rt, followed by dialysis against 2 liters of PBS 1× overnight at rt. The solution was then filtered with a Syringe filter, 0.45 μm (Nalgene, Cat. No. 194-2545). The conjugate can be stored in polypropylene tubes in 0.05% sodium azide at 4° C. for at least 12 months.
1.2 Preparation of BSA-Ang I Coated MTP […]
The renin assay was adapted from an assay described before (Fischli W. et al., Hypertension, 1991, 18:22-31) and consists of two steps: in the first step, recombinant human renin is incubated with its substrate (commercial human tetradecapeptide renin substrate) to create the product Angiotensin I (Ang I). In the second step, the accumulated Ang I is measured by an immunological assay (enzyme immuno assay, EIA). […]

[2] = system: double transgenic rats with human renin and human angiotensinogen; assay: Hemodynamic measurements (telemetry method) in hypertensive double transgenic rats; format: in vivo, rat; conditions: female double transgenic rats
Description: Hemodynamic Measurements (Telemetry Method)
Animals—Female double transgenic rats with human renin and human angiotensinogen were purchased from RCC Ltd, Füllingsdorf, Switzerland. All animals were maintained under identical conditions and had free access to normal pelleted rat chow and water. Rats were initially treated with enalapril (1 mg/kg/day) during 2 months. After approximately two weeks following cessation of enalapril treatment the double transgenic rats become hypertensive and reach mean arterial blood pressures in the range of 160-170 mmHg.
Transmitter implantation—The rats were anaesthetised with a mixture of 90 mg/kg Ketamin-HCl (Ketavet, Parke-Davis, Berlin FRG) and 10 mg/kg xylazin (Rompun, Bayer, Leverkusen, FRG) i.p. The pressure transmitter was implanted under aseptic conditions into the peritoneal cavity with the sensing catheter placed in the descending aorta below the renal arteries pointing upstream. The transmitter was sutured to the abdominal musculature and the skin closed.
Telemetry-System—Telemetry units were obtained from Data Sciences (St. Paul, Minn.). […] The tip of the catheter was filled with a viscous gel that prevents blood reflux and was coated with an antithrombogenic film to inhibit thrombus formation. The implants (length=2.5 cm, diameter=1.2 cm) weighted 9 g and have a typical battery life of 6 months. A receiver platform (RPC-1, Data Sciences) connected the radio signal to digitized input that was sent to a dedicated personal computer (Compaq, deskpro). Arterial pressures were calibrated by using an input from an ambient-pressure reference (APR-1, Data Sciences). Systolic, mean and diastolic blood pressure was expressed in millimeter of mercury (mmHg).
[…] The effect of the test substance is expressed as maximal decrease of mean arterial pressure (MAP) in the treated group versus the control group.

Question: What does the source list for `Cc1cc(Cl)c(OCCOc2ccc(C3=C(C(=O)N(Cc4cccc(C)c4C)C4CC4)[C@H]4CNC[C@@H](C3)N4)cc2)c(Cl)c1` [Compound (I′), (1R,5S)-7-{4-[2-(2,6-dichloro-4-methylphenoxy)ethoxy]-phenyl}-3,9-diazabicyclo[3.3.1]non-6-ene-6-carboxylic acid cyclopropyl-(2,3-dimethylbenzyl)amide]?
Answer: IC50 [1]: 300 pM; activity in the animal model ([2]; oral): active; blood pressure decrease (maximal decrease of mean arterial pressure vs control group) ([2]; single oral dose of 3 mg/kg): 17 mmHg; blood pressure decrease (maximal decrease of mean arterial pressure vs control group) ([2]; single oral dose of 10 mg/kg): 30 mmHg
